Data on three compounds can be found in patent US20080319065A1, “Systemic and Intrathecal Effects of a Novel Series of Phospholipase A2 Inhibitors on Hyperalgesia and Spinal Pge2 Release” (The Regents of the University of California, priority 2005, published 2008).

For data set [1], the target named is T1, Group IVA cPLA2 (GIVA PLA2) (Homo sapiens, UniProt P47712).
T1 sequence (P47712 1-749): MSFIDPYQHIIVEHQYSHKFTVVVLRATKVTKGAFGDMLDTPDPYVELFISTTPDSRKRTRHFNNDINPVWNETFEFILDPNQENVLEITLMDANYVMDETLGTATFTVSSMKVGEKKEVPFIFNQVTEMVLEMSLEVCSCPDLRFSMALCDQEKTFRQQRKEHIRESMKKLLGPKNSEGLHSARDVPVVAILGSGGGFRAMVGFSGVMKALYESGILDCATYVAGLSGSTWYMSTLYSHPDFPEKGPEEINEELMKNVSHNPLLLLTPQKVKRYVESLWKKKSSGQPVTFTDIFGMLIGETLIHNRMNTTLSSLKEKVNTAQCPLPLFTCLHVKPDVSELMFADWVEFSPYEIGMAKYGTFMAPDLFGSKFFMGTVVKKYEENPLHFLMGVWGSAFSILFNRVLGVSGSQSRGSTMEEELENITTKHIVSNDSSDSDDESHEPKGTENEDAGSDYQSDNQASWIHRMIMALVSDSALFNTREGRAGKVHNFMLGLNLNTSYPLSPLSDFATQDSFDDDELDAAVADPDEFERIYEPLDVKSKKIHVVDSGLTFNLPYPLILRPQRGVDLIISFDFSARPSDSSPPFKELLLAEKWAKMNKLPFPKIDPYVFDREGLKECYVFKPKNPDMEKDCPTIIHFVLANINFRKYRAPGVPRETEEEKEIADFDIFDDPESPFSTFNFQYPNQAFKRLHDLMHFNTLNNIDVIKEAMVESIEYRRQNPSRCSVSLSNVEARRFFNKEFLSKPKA
In words: In vitro Group IVA cPLA2 mixed micelle assay. In kind it is biochemical. The procedure:
(§1) Numerous 2-oxoamides were tested for inhibition of PLA2s in in vitro assay systems. The data, summarized in Tables 1a, 1b and 2 are represented as XI(50) values unless otherwise noted. XI(50) is defined as the inhibitor concentration that produced 50% inhibition. XI(50) is used as opposed to the more common IC50 because GIVA and GVIA PLA2 are active at a two-dimensional lipid interface rather than in three-dimensional solution. (Deems, Anal. Biochem., 287:1-16, 2000). The 2-oxoamide inhibitors likely partition to the micelle interface and therefore must be represented as a percentage of surface concentration (mole fraction) as opposed to bulk concentration (molar units). (Kokotos, et al., J. Med. Chem., 45:2891-2893, 2002).
(§2) In vitro Group IV cPLA2 and Group VI iPLA2 assays were done as previously described (Kokotos, et al., supra, 2002). Briefly, 100 μM lipid substrate and 100,000 cpm radiolabeled analog were dried down under N2 and dissolved in assay buffer containing 400 μM Triton X-100 to yield a mixed micelle substrate solution. Inhibitors dissolved in DMSO were added to the reaction tubes and allowed to incubate with substrate for five minutes at 40° C. Pure enzyme was added to yield a final volume of 500 μl, and digestion was carried out at 40° C. for 30 minutes. Reactions were quenched and extracted using the Dole method and products were quantified by liquid scintillation counting. Percent inhibition was determined at a range of inhibitor mole fraction concentrations for XI(50) calculations.

The target in data set [2] is T2, Group VIA iPLA2 (GVIA PLA2) (Homo sapiens, UniProt O60733).
T2 sequence (O60733 1-806): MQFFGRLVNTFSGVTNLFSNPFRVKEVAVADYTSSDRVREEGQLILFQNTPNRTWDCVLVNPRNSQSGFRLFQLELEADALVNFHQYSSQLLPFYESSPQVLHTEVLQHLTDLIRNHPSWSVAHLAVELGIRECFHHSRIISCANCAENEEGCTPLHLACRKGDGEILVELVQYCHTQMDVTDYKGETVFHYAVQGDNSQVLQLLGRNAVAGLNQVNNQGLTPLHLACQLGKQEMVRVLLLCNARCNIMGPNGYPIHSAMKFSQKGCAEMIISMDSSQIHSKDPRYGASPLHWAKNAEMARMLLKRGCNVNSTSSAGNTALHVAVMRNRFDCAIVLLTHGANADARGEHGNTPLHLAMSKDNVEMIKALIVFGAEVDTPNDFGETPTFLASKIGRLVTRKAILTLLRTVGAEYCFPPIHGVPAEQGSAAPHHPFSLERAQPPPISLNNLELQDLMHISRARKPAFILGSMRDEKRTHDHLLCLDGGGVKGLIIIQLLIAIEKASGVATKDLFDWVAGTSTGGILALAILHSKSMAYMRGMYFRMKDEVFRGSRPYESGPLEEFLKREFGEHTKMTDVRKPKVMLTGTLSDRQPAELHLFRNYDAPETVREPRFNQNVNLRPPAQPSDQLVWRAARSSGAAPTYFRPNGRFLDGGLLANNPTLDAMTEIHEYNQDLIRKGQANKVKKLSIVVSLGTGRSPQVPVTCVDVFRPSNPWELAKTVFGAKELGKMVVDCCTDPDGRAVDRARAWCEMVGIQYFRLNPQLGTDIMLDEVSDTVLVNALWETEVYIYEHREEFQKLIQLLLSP
In words: In vitro Group VIA iPLA2 mixed micelle assay. In kind it is biochemical. The method, then: as §1, §2

The next data set concerns the target T3, GV sPLA2 (Homo sapiens, UniProt P39877).
T3 sequence (P39877 21-138): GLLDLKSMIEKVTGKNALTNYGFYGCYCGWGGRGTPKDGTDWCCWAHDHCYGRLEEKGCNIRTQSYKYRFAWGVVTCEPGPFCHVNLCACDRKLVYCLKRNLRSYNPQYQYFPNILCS
In words: GV sPLA2 activity assay. In kind it is biochemical. The following applies: at 0.091 mole fraction. The method, then: GV sPLA2 activity was measured in a similar assay. The final assay buffer was composed of 50 mM Tris-HCl (pH 8.0) and 5 mM CaCl2. Each assay was performed in 500 μL total volume made up of 100 μL of 5× substrate solution (20 μL of 10 mM Triton X-100 and 80 μL assay buffer), 390 μL assay buffer, 10 μL GV sPLA2 solution (1 μL of 40 ng/μL stock and 9 μL assay buffer), and 5 μL of DMSO or 2-oxoamide in DMSO. The 5× substrate solution was prepared by drying down the phospholipids (in organic solvent) with N2. The appropriate volume of 10 mM Triton X-100 was added, heated and vortexed until clear. Then assay buffer was added to make a 5× substrate solution. The final mixed micelles were at 400 μM Triton X-100 and 100 μM DPPC (of which 100,000 cpm of ^14C-DPPC).

The subject of data set [3] is murine RAW 264.7 macrophage-like cell line. In words: Long-term LPS stimulation, PGE2 release. In kind it is cell-based. The following applies: low μM range. The method, then:
Several 2-oxoamides were tested in the long-term lipopolysaccharide (LPS) stimulation pathway in the murine RAW 264.7 macrophage-like cell line. (Raschke, et al., Cell, 1978, 15, 261-267). This pathway requires GIVA PLA2 activity and results in the extracellular release of many eicosanoid compounds including the prostaglandin PGE2. (Gijon, et al., leukoc. Biol., 1999, 65, 330-336). […] In the low μM range, AX041 and AX073 reduced PGE2 release by roughly 40% (FIG. 1(D)). At 1 μM and 5 μM concentrations, small activations were often seen. The in vitro and cellular results together are consistent with the known roles of GVIA PLA2 given that AX010, a selective GVIA inhibitor, had no cellular effect. […] Inhibitors selective for GIVA PLA2 or dual specificity inhibitors reduce PGE2 levels, also consistent with the known role of GIVA PLA2 in PGE2 production.

A further data set addresses T4, GVIA PLA2 (Homo sapiens, UniProt O60733).
T4 sequence (O60733 1-806): T2 sequence (O60733 1-806)
In words: Time dependence and reversibility of GVIA PLA2 inhibition. In kind it is biochemical. The method, then: GVIA PLA2 (25 ng) was preincubated with either AX010 or AX0073 (5 μM) for 0, 5, 15 or 30 minutes and then assayed in the standard GVIA PLA2 assay mix containing 5 μM inhibitor. The final concentration of the inhibitors in the assay mix was 0.01 mole fraction, and the samples were incubated for 30 minutes at 40° C. […] In the latter respect, 25 ng of GVIA PLA2 was pre-incubated with 10 μM AX010 or AX073 for 10 minutes before diluting the enzyme 1:50 into the standard GVIA PLA2 assay mix lacking inhibitor, and incubating for 30 minutes at 40° C. The final inhibitor concentration in these assays was 0.0004 mole fraction, well below surface concentrations that either AX010 or AX073 inhibit the enzyme.

The next data set deals with COX-1 and COX-2 proteins. In words: COX Activity Assay kit, in vitro cyclooxygenase activity. In kind it is biochemical. The note with it: 50 μM. The method, then:
Inhibitors dissolved in DMSO (study compounds) or ethanol (indomethacin) were added to 50 μM final concentration and allowed to incubate with the assay mixture including enzyme for 5 minutes. After addition of TMPD and arachidonic acid, samples were mixed and allowed to incubate 5 minutes at room temperature before reading absorbance at 595 nm to determine results. Results were calculated and percent inhibition values derived.

For `CCCCCCCCCCCCCCC(=O)C(=O)NC(C=CC(=O)OC)CCCC` (stereo not drawn) [AX073, 4-(2-Oxo-hexadecanoylamino)-oct-2-enoic acid methyl ester], the melting point is 48 to 50 °C. The “Inhibition of GIVA PLA2, XI(50)” value in data set [1] is “XI(50) =0.018 ± 0.010 mole fraction”. Further, the “Inhibition of GVIA PLA2, XI(50)” value in data set [2] is recorded as “XI(50) =0.032 ± 0.010 mole fraction”. In addition, the “efficacy against sPLA2” value on GV sPLA2 worked out at 75.3%. The “reduction of PGE2 release” value in data set [3] is listed as “roughly 40%”. Also, the “reversibility of GVIA PLA2 inhibition” value at GVIA PLA2 (pre-incubated with 10 μM for 10 minutes, diluted 1:50, final 0.0004 mole fraction) is on record as “freely reversible inhibitors”. For the same compound, the “time-dependent inhibition of GVIA PLA2” value on GVIA PLA2 (preincubated 0, 5, 15 or 30 minutes, 5 μM inhibitor, 0.01 mole fraction) was “no increased potency with prolonged incubation”.
`CCCCCCCCC=CCCCCCCCC(=O)C(=O)NCCCC(=O)OC` [AX041, 4-(2-Oxo-nonadec-10-enoylamino)-butyric acid methyl ester]: the “reduction of PGE2 release” value in data set [3] was “roughly 40%”.
On to `COc1ccc2c(c1)c(CC(=O)O)c(C)n2C(=O)c1ccc(Cl)cc1` [indomethacin, reference compound], for which, in the data set on COX-1 and COX-2 proteins, the “inhibition of cyclooxygenase activity” value is recorded as “near complete inhibition”.
